# Calls of active or inactive are those of the source. The rule behind the calls is not given here.
# Legend:
# SF-268 = experiment: Anti-cancer activity against human SF-268 cells assessed as cell growth inhibition measured after 48 hrs by SRB method; type: functional, cell-based
# SF-295 = experiment: Anti-cancer activity against human SF-295 cells assessed as cell growth inhibition measured after 48 hrs by SRB method; type: functional, cell-based
# SNB-19 = experiment: Anti-cancer activity against human SNB-19 cells assessed as cell growth inhibition measured after 48 hrs by SRB method; type: functional, cell-based
# U-251 = experiment: Anti-cancer activity against human U251 cells assessed as cell growth inhibition measured after 48 hrs by SRB method; type: functional, cell-based
# SK-MEL-2 = experiment: Anti-cancer activity against human SK-MEL-2 cells assessed as cell growth inhibition measured after 48 hrs by SRB method; type: functional, cell-based
# OVCAR-4 = experiment: Anti-cancer activity against human OVCAR-4 cells assessed as cell growth inhibition measured after 48 hrs by SRB method; type: functional, cell-based
# BT-549 = experiment: Anti-cancer activity against human BT-549 cells assessed as cell growth inhibition measured after 48 hrs by SRB method; type: functional, cell-based
# MDA-MB-468 = experiment: Anti-cancer activity against human MDA-MB-468 cells assessed as cell growth inhibition measured after 48 hrs by SRB method; type: functional, cell-based
# NCI-H522 = experiment: Anti-cancer activity against human NCI-H522 cells assessed as cell growth inhibition measured after 48 hrs by SRB method; type: functional, cell-based
# CAKI-1 = experiment: Anti-cancer activity against human CAKI-1 cells assessed as cell growth inhibition measured after 48 hrs by SRB method; type: functional, cell-based
# [1] = Anti-cancer activity against human colon cancer cells assessed as cell growth inhibition measured after 48 hrs by SRB method; type: functional; conditions: Colon cancer cell line
# Tubulin (Homo sapiens) = Tubulin (Homo sapiens) (UniProt P68371+Q9H4B7+P0DPH7+P68366+Q13509+Q71U36+P04350+Q3ZCM7+P07437+P68363+Q9BQE3+Q6PEY2+Q13885+Q9BVA1+Q9BUF5); experiment: Disruption of tubulin in human HCT-116 cells assessed as induction of tubulin reorganization at 20 uM after 48 hrs by DAPI staining based immunofluorescence method; type: cell-based
# [2] = Anti-cancer activity against human breast cancer cells assessed as cell growth inhibition measured after 48 hrs by SRB method; type: functional; conditions: Breast cancer cell line
# [3] = Anti-cancer activity against human renal cancer cells assessed as cell growth inhibition measured after 48 hrs by SRB method; type: functional; conditions: Renal cancer cell line
smiles,measurement,setting,value
C1=C2CNCC3=Cc4c(ccc5ccccc45)OC23Oc2ccc3ccccc3c21,IC50,"SF-268; SF-268, 48 h",12.3 µM
same,GI50,"SF-268; SF-268, time 48 hrs",5.62 µM
same,TGI,"SF-268; SF-268, time 48 hrs",22.4 µM
same,CC50,"SF-268; SF-268, time 48 hrs, read-out: LC50 (the source's name)",4.15 µM
same,IC50,"SF-295; SF-295, 48 h",5.25 µM
same,GI50,"SF-295; SF-295, time 48 hrs",3.09 µM
same,TGI,"SF-295; SF-295, time 48 hrs",15.5 µM
same,CC50,"SF-295; SF-295, time 48 hrs, read-out: LC50 (the source's name)",4 µM
same,IC50,"SNB-19; SNB-19, 48 h",15.8 µM
same,GI50,"SNB-19; SNB-19, time 48 hrs",6.92 µM
same,LC50,"SNB-19; SNB-19, time 48 hrs",4 µM
same,TGI,"SNB-19; SNB-19, time 48 hrs",29.5 µM
same,IC50,"U-251; U-251, 48 h",5.13 µM
same,GI50,"U-251; U-251, time 48 hrs",3.24 µM
same,LC50 (concentration killing 50% of cells),"U-251; U-251, time 48 hrs",4.21 µM
same,TGI,"U-251; U-251, time 48 hrs",14.8 µM
same,IC50,"SK-MEL-2; SK-MEL-2, 48 h",25.7 µM
same,GI50,"SK-MEL-2; SK-MEL-2, time 48 hrs",5.5 µM
same,TGI,"SK-MEL-2; SK-MEL-2, time 48 hrs",22.9 µM
same,CC50,"SK-MEL-2; SK-MEL-2, time 48 hrs, read-out: LC50 (the source's name)",4.03 µM
same,IC50,"OVCAR-4; OVCAR-4, 48 h",11.7 µM
same,GI50,"OVCAR-4; OVCAR-4, time 48 hrs",4.68 µM
same,LC50,"OVCAR-4; OVCAR-4, time 48 hrs",4.21 µM
same,TGI,"OVCAR-4; OVCAR-4, time 48 hrs",20 µM
same,IC50,"BT-549; BT-549, 48 h",40.7 µM
same,GI50,"BT-549; BT-549, time 48 hrs",11.2 µM
same,TGI,"BT-549; BT-549, time 48 hrs",40.7 µM
same,CC50,"BT-549; BT-549, time 48 hrs, read-out: LC50 (the source's name)",4 µM
same,IC50,"MDA-MB-468; MDA-MB-468, 48 h",5.89 µM
same,GI50,"MDA-MB-468; MDA-MB-468, time 48 hrs",2.04 µM
same,TGI,"MDA-MB-468; MDA-MB-468, time 48 hrs",7.59 µM
same,CC50,"MDA-MB-468; MDA-MB-468, time 48 hrs, read-out: LC50 (the source's name)",4.32 µM
same,IC50,"NCI-H522; NCI-H522, 48 h",9.55 µM
same,GI50,"NCI-H522; NCI-H522, time 48 hrs",3.02 µM
same,TGI,"NCI-H522; NCI-H522, time 48 hrs",13.2 µM
same,CC50,"NCI-H522; NCI-H522, time 48 hrs, read-out: LC50 (the source's name)",4.15 µM
same,IC50,"CAKI-1; CAKI-1, 48 h",12 µM
same,GI50,"CAKI-1; CAKI-1, time 48 hrs",3.31 µM
same,TGI,"CAKI-1; CAKI-1, time 48 hrs",20.9 µM
same,CC50,"CAKI-1; CAKI-1, time 48 hrs, read-out: LC50 (the source's name)",4.07 µM
same,GI50,[1],3.09 µM
same,Activity,Tubulin (Homo sapiens),Active
same,GI50,[2],4.68 µM
same,GI50,[3],3.98 µM

# From ChEMBL document CHEMBL4680293, “Tubulin inhibitory activity of a novel colchicine-binding compounds based on a dinaphthospiropyranran scaffold” (Bioorg Med Chem, 2021)
